One may read the Log P as a log measure of how a compound divides between an organic and an aqueous phase. A high value points to a more lipophilic compound. In general, logP refers to a log measure of how a compound divides between an organic and an aqueous phase. Higher therefore signals higher lipophilicity.

The structures appear in SMILES notation. Entries after “also recorded” stand apart in the source; their conditions may differ.

Series [1] can be described thus: Copper on hair after repeat shampoo wash cycles (ICP-OES), versus shampoo without chelant. The conditions noted are these: for reduces copper by: shampoo composition containing 0.1 wt % chelant, 20 cleaning cycles, compared to shampoo without the chelant; for reduction/removal of copper on hair compared to shampoo without chelant (in words): 10 shampoo cycles; for Copper Removing Performance from Shampoo: clarifying shampoo containing the chelant, 20 cycles, copper content of hair compared to shampoo without the chelant; for reduction/removal of copper on hair compared to control shampoo (in words): 20 shampoo cycles, clarifying shampoo. On the procedure:
The copper removing performance of the shampoo composition is determined by treating hair with clarifying shampoo containing the corresponding chelant for 20 cycles and comparing the copper content of the hair compared to the same treatment using shampoo without the chelant.
(§1) All testing are performed on colored hair switches (see Method of Measurement of Copper on Hair below) weighing approximately […] and having a length of approximately 6 inches. The hair switches are commercially available from IHIP (International Hair Importers). Three hair switches per sampoo composition are used. An amount of […] of shampoo is spread via a syringe onto separate hair switch. That is, the dosage is 0.10 g of shampoo per g of hair. Each application consists of adding shampoo to the hair, milking for 30 seconds followed by rinsing for 30 seconds. Shampoo is then reapplied (0.1 g/g), milked for 30 seconds and rinsed for 30 seconds. Excess water is squeezed from the hair switches and left to air dry or treated with a rinse-off conditioner and/or a leave-on treatment composition. This protocol is repeated for a number of times/cycles (as indicated in the tables below, which describe the details of hair treatments).
The following test method is used to assess the ability of the compositions and regimens to remove copper from the hair and to inhibit copper deposition onto the hair.
Hair switches are colored once with an oxidative hair colorant. An extra blonde shade is used for the testing. The hair switches are washed for 10 or 20 repeat wash cycles in tap water containing 7 grains per gallon water hardness (Ca/Mg) and 0.06 μg/g copper ions. Each wash cycle consists of two applications of 0.1 g/g a shampoo to the hair switches. Each application consists of adding shampoo to the hair, milking for 30 secs followed by rinsing for 30 secs. Shampoo is then reapplied 0.1 g/g, milked for 30 secs, rinsed for 30 secs and then dried in a heat box (60° C.) until dry.
Samples of 100 mg of hair are digested overnight with 2 ml of high purity concentrated nitric acid. The digestive mixture also contains 150 μL of 100 μg/g Yttrium internal standard (Inorganic Ventures, Christianburg, Va., USA). Following digestion, samples are heated to 70-80° C. for one hour, cooled to room temperature and diluted to 15 mL with deionized water. Copper content of the hair switches is determined by inductively coupled plasma atomic spectroscopy (ICP-OES)). For each leg, 3 different samples are analyzed.
In order to minimize the variability of the resulting copper content on hair that is related to (a) lot-to-lot viariability due to hair switches and (b) day-to-day variability of the water used during shampoo and conditioner treatments, a single lot of hair switches is used for each experimental series and a separate control experiment/treatment is run for each experimental series (see below).

Series [2] is described as follows: log P, n-octanol/water partition coefficient. The format is physicochemical. The text has this: The term log P is the n-octanol/water partition coefficients of the material.
The copper to be removed is inside the hair and the chelant needs to penetrate inside hair and form a strong copper-chelant complex. This copper-chelant complex needs to be water soluble and thus easily removed during the rinsing process. […] These are log P, the octanol/water partitioning coefficient, and the molecular weight of the chelant. Both are related to the ability of the chelant to penetrate into hair and also form a water soluble copper-chelant complex

The conditions of series [3]: log of formation constant of complex with copper; cited from earlier work.
The nature of series [4]: Copper on hair after regimen cycles of shampoo, rinse-off conditioner and leave-on treatment (ICP-OES). The conditions noted are these: 20 conditioning shampoo/rinse-off conditioner/leave-on treatment regimen cycles. On the procedure:
as §1
The following test method is used to assess the ability of the compositions and regimens to remove copper from the hair and to inhibit copper deposition onto the hair. […]
Samples of 100 mg of hair are digested overnight with 2 ml of high purity concentrated nitric acid. […] Copper content of the hair switches is determined by inductively coupled plasma atomic spectroscopy (ICP-OES)). For each leg, 3 different samples are analyzed. […]

Turning to `O=C(O)CN(CCO)CC(=O)O` [N-(2-hydroxyethyl)iminodiacetic acid], in series [1], the “reduces copper by” value came out at 30%.

With `CC(O)CN(CCN(CC(C)O)CC(C)O)CCN(CC(C)O)CC(C)O` (stereo not shown) [Pentrol], the “Log P” value in series [2] is reported as −0.2.

For `NCCN(CCN)CCN` [Tris(2-aminoethyl)amine], in series [1], the “reduction/removal of copper on hair compared to shampoo without chelant (in words)” value was “effective removal of copper from hair” and the “Copper Removing Performance from Shampoo” value turned out to be 45%. Also, in series [2], the lipophilicity (logP) was -2.2. Further, in series [3], the “Log KML Cu” value is recorded as 18.8.

`OCCN(CCO)CCN(CCO)CCN(CCO)CCN(CCO)CCN(CCO)CCO` [Tetraethylenepentaamine-(1-EO)] displayed a logP in series [2] of -2.9.

For `NCCCNCCCNCCCN` [1,5,9,13-Tetraazatridecane], the “Copper Removing Performance from Shampoo” value in series [1] is reported as 15%. The compound further registered a logP in series [2] of -2.1. The “Log KML Cu” value in series [3] was 17.1.

On to `NCCNCCNCCNCCN` [2,4-Tetraethylenepentamine], for which, in series [1], the “reduction/removal of copper on hair compared to control shampoo (in words)” value was “more effective treatements” and the “Copper Removing Performance from Shampoo” value came to 60%. For the same compound, the lipophilicity (logP) in series [2] was -2.7. Further, the “Log KML Cu” value in series [3] is reported as 22.8.

On to `O=C(O)CNCC(=O)O` [iminodiacetic acid], for which the “reduces copper by” value in series [1] was 40%.

Regarding `NCCNCCNCCN` [2,3-Triethylenetetramine], in series [1], the “reduction/removal of copper on hair compared to shampoo without chelant (in words)” value is recorded as “significant reduction of copper content on hair”, the “reduction/removal of copper on hair compared to control shampoo (in words)” value was “effective removal of copper from hair; also recorded: more effective treatements” and the “Copper Removing Performance from Shampoo” value was determined as 70%. This compound also had a lipophilicity (logP) in series [2] of -2.3. The “removal of copper from hair compared to control regimen (in words)” value in series [4] was “effective removal of copper from hair”. Also, the “Log KML Cu” value in series [3] is reported as 20.1.

For the compound `CC(O)CN(CCN(CC(C)O)CC(C)O)CC(C)O` (stereo not shown) [Ethylenedinitrilotetrapropan-2-ol], in series [1], the “reduction/removal of copper on hair compared to control shampoo (in words)” value is “effective removal of copper from hair” and the “Copper Removing Performance from Shampoo” value was 30%. For the same compound, in series [2], the “Log P” value is recorded as −0.2. In addition, the “Log KML Cu” value in series [3] was 9.8.

The values above are taken from patent publication US11166894B2, “Shampoo compositions comprising a chelant” (The Procter & Gamble Company, priority 2016, dated 2021).
